The values that follow come from US20240199587A1, “HETEROCYCLIC COMPOUNDS” (Hoffmann-La Roche Inc., priority 2021, published 2024).

Broadly, the IC50 is the concentration that inhibits the measured activity by half. High values mean a need for much substance, low ones inhibition by little substance.

The assay has as its target T1, MAGL (Homo sapiens, UniProt Q99685).
T1 sequence (Q99685 1-303): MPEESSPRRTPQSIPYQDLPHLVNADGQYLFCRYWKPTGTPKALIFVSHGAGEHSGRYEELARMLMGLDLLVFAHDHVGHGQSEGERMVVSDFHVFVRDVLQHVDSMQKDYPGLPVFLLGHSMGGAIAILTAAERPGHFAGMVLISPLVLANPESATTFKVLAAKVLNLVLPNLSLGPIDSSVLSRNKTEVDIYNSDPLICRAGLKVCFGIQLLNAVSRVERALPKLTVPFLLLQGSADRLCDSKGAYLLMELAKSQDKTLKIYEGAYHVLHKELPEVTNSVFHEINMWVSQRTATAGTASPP
In words: 2-AG assay (MAGL inhibitory activity, hydrolysis of 2-arachidonoylglycerol to arachidonic acid followed by mass spectrometry). Format: biochemical. Particulars: 8 μM 2-arachidonoylglycerol, 15 min pre-incubation, 30 min incubation at RT, RapidFire MS readout. The essentials: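 Human MAGL ([…] final) pre-incubated 15 min at RT with compound in 50 mM TRIS, 1 mM EDTA, 0.01% Tween-20, 2.5% DMSO; 8 μM 2-AG then added for 30 min at RT. Acetonitrile quench with d8-arachidonic acid; arachidonic acid measured by RapidFire SPE–MS/MS, activity from arachidonic acid/d8 ratio.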
`NS(=O)(=O)c1ccc(C2CN(C(=O)N3CC4(CC(n5cnc(C6CC6)n5)C4)C3)C2)cc1` [Example 293, 4-[1-[6-(3-cyclopropyl-1,2,4-triazol-1-yl)-2-azaspiro[3.3]heptane-2-carbonyl]azetidin-3-yl]benzenesulfonamide]: the IC50 worked out at 78 nM.

`NC(=O)c1ccc(F)c(S(=O)(=O)N2CC3(CN(C(=O)N4CC5(CC(n6cnc(C7CC7)n6)C5)C4)C3)C2)c1` [Example 294] gave an IC50 of 81.6 nM.

Take `CC(=O)Nc1ccc(S(=O)(=O)N2CC3(CN(C(=O)N4CC5(CC(n6cnc(C7CC7)n6)C5)C4)C3)C2)cc1` [Example 295, N-[4-[[6-[6-(3-cyclopropyl-1,2,4-triazol-1-yl)-2-azaspiro[3.3]heptane-2-carbonyl]-2,6-diazaspiro[3.3]heptan-2-yl]sulfonyl]phenyl]acetamide]: inhibition was half-maximal at 89 nM (IC50).

In turn, `O=C(N1CC2(CC(n3cnc(C4CC4)n3)C2)C1)N1CC2(C1)CN(S(=O)(=O)CC1CC1)C2` [Example 296, [2-(cyclopropylmethylsulfonyl)-2,6-diazaspiro[3.3]heptan-6-yl]-[6-(3-cyclopropyl-1,2,4-triazol-1-yl)-2-azaspiro[3.3]heptan-2-yl]methanone] displayed an IC50 of 91.5 nM.

In turn, `O=C(N1CC2(CC(n3cnc(C4CC4)n3)C2)C1)N1CC2(C1)CN(S(=O)(=O)c1cccnc1C(F)(F)F)C2` [Example 297, [6-(3-cyclopropyl-1,2,4-triazol-1-yl)-2-azaspiro[3.3]heptan-2-yl]-[2-[[2-(trifluoromethyl)-3-pyridyl]sulfonyl]-2,6-diazaspiro[3.3]heptan-6-yl]methanone] gave an IC50 of 94.4 nM.

In turn, `NC(=O)c1ccc(S(=O)(=O)N2CC3(CN(C(=O)N4CC5(CC(n6cnc(C7CC7)n6)C5)C4)C3)C2)cc1` [Example 298, 4-[[6-[6-(3-cyclopropyl-1,2,4-triazol-1-yl)-2-azaspiro[3.3]heptane-2-carbonyl]-2,6-diazaspiro[3.3]heptan-2-yl]sulfonyl]benzamide] displayed an IC50 of 95.5 nM.

With `CC(C)(Cc1cccc(OC2CN(C(=O)N3CC4(CC(n5cnc(C6CC6)n5)C4)C3)C2)c1)C(=O)O` [Example 299, 3-[3-[1-[6-(3-cyclopropyl-1,2,4-triazol-1-yl)-2-azaspiro[3.3]heptane-2-carbonyl]azetidin-3-yl]oxyphenyl]-2,2-dimethyl-propanoic acid], the IC50 came to 95.7 nM.

Regarding `Cc1oncc1S(=O)(=O)N1CC2(CN(C(=O)N3CC4(CC(n5cnc(C6CC6)n5)C4)C3)C2)C1` [Example 300, [6-(3-cyclopropyl-1,2,4-triazol-1-yl)-2-azaspiro[3.3]heptan-2-yl]-[2-(5-methylisoxazol-4-yl)sulfonyl-2,6-diazaspiro[3.3]heptan-6-yl]methanone], the half-inhibitory concentration (IC50) was found to be 95.7 nM.

For `O=C(N1CC(CNS(=O)(=O)c2ccc(F)cc2C(F)(F)F)C1)N1CC2(CC(n3cnc(C4CC4)n3)C2)C1` [Example 302], the IC50 worked out at 101 nM.

Compound `O=C(N1CC(Oc2cncc(C(F)(F)F)n2)C1)N1CC2(CC(n3cnc(C4CC4)n3)C2)C1` [Example 303, [6-(3-cyclopropyl-1,2,4-triazol-1-yl)-2-azaspiro[3.3]heptan-2-yl]-[3-[6-(trifluoromethyl)pyrazin-2-yl]oxyazetidin-1-yl]methanone] gave a half-maximal inhibitory concentration (IC50) of 101 nM.

On to `O=C(N1CC2(CC(n3cnc(C4CC4)n3)C2)C1)N1CC2(C1)CN(S(=O)(=O)C(F)(F)F)C2` [Example 304, [6-(3-cyclopropyl-1,2,4-triazol-1-yl)-2-azaspiro[3.3]heptan-2-yl]-[2-(trifluoromethylsulfonyl)-2,6-diazaspiro[3.3]heptan-6-yl]methanone], for which the IC50 was 108 nM.

Consider `NC(=O)C(c1ccc(F)cc1)C1CCN(C(=O)N2CC3(CC(n4cnc(C5CC5)n4)C3)C2)CC1` (stereo not shown) [Example 305, 2-[1-[6-(3-cyclopropyl-1,2,4-triazol-1-yl)-2-azaspiro[3.3]heptane-2-carbonyl]-4-piperidyl]-2-(4-fluorophenyl)acetamide], for which the IC50 worked out at 117 nM.

In turn, `NC(=O)[C@H](c1ccc(F)cc1)N1CCN(C(=O)N2CC3(CC(n4cnc(C5CC5)n4)C3)C2)CC1` [Example 306, (2S)-2-[4-[6-(3-cyclopropyl-1,2,4-triazol-1-yl)-2-azaspiro[3.3]heptane-2-carbonyl]piperazin-1-yl]-2-(4-fluorophenyl)acetamide] had a half-inhibitory concentration (IC50) of 129 nM.

`O=C(N1CC(OCc2ccc(S(F)(F)(F)(F)F)cc2)C1)N1CC2(CC(n3cnc(C(F)(F)F)c3)C2)C1` [Example 307, [3-[[4-(pentafluoro-λ^6-sulfanyl)phenyl]methoxy]azetidin-1-yl]-[6-[4-(trifluoromethyl)imidazol-1-yl]-2-azaspiro[3.3]heptan-2-yl]methanone] registered an IC50 of 136 nM.

For `N#Cc1ccc(S(=O)(=O)N2CC3(CN(C(=O)N4CC5(CC(n6cnc(C7CC7)n6)C5)C4)C3)C2)cc1` [Example 308], the IC50 was 138 nM.

Consider `COc1ncccc1S(=O)(=O)N1CC2(CN(C(=O)N3CC4(CC(n5cnc(C6CC6)n5)C4)C3)C2)C1` [Example 309, [6-(3-cyclopropyl-1,2,4-triazol-1-yl)-2-azaspiro[3.3]heptan-2-yl]-[2-[(2-methoxy-3-pyridyl)sulfonyl]-2,6-diazaspiro[3.3]heptan-6-yl]methanone], for which half-maximal inhibition (IC50) was put at 148 nM.

The compound `Nc1ncc(S(=O)(=O)N2CC3(CN(C(=O)N4CC5(CC(n6cnc(C7CC7)n6)C5)C4)C3)C2)cn1` [Example 310, [2-(2-aminopyrimidin-5-yl)sulfonyl-2,6-diazaspiro[3.3]heptan-6-yl]-[6-(3-cyclopropyl-1,2,4-triazol-1-yl)-2-azaspiro[3.3]heptan-2-yl]methanone] displayed an IC50 of 154 nM.

`CNC(=O)C(c1ccccc1)N1CC2(CN(C(=O)N3CC4(CC(n5cnc(C6CC6)n5)C4)C3)C2)C1` (stereo not shown) [Example 311, 2-[2-[6-(3-cyclopropyl-1,2,4-triazol-1-yl)-2-azaspiro[3.3]heptane-2-carbonyl]-2,6-diazaspiro[3.3]heptan-6-yl]-N-methyl-2-phenyl-acetamide] registered an IC50 of 176 nM.

`O=C(NCC(F)(F)F)c1cnn(C2CN(C(=O)N3CC4(CC(n5cnc(C6CC6)n5)C4)C3)C2)c1` [Example 312, 1-[1-[6-(3-cyclopropyl-1,2,4-triazol-1-yl)-2-azaspiro[3.3]heptane-2-carbonyl]azetidin-3-yl]-N-(2,2,2-trifluoroethyl)pyrazole-4-carboxamide] returned an IC50 of 202 nM.

As to `O=C(O)c1ccccc1CN1CC2(C1)CN(C(=O)N1CC3(CC(n4cnc(C5CC5)n4)C3)C1)C2` [Example 313, 2-[[2-[6-(3-cyclopropyl-1,2,4-triazol-1-yl)-2-azaspiro[3.3]heptane-2-carbonyl]-2,6-diazaspiro[3.3]heptan-6-yl]methyl]benzoic acid], the IC50 amounted to 206 nM.

Compound `CN(C)S(=O)(=O)N1CC2(CN(C(=O)N3CC4(CC(n5cnc(C6CC6)n5)C4)C3)C2)C1` [Example 314, 6-[6-(3-cyclopropyl-1,2,4-triazol-1-yl)-2-azaspiro[3.3]heptane-2-carbonyl]-N,N-dimethyl-2,6-diazaspiro[3.3]heptane-2-sulfonamide] displayed an IC50 of 229 nM.

In the case of `Cc1cn(C2CC3(C2)CN(C(=O)N2CC(OCc4ccc(S(F)(F)(F)(F)F)cc4)C2)C3)cn1` [Example 315, [6-(4-methylimidazol-1-yl)-2-azaspiro[3.3]heptan-2-yl]-[3-[[4-(pentafluoro-26-sulfanyl)phenyl]methoxy]azetidin-1-yl]methanone], the IC50 turned out to be 240 nM.

Compound `O=C(N1CC(Oc2nccc(C(F)(F)F)n2)C1)N1CC2(CC(n3cnc(C4CC4)n3)C2)C1` [Example 316, [6-(3-cyclopropyl-1,2,4-triazol-1-yl)-2-azaspiro[3.3]heptan-2-yl]-[3-[4-(trifluoromethyl)pyrimidin-2-yl]oxyazetidin-1-yl]methanone] had an IC50 of 248 nM.

For `O=C(N1CC2(CC(n3cnc(C4CC4)n3)C2)C1)N1CC2(C1)CN(S(=O)(=O)c1cccnc1)C2` [Example 317, [6-(3-cyclopropyl-1,2,4-triazol-1-yl)-2-azaspiro[3.3]heptan-2-yl]-[2-(3-pyridylsulfonyl)-2,6-diazaspiro[3.3]heptan-6-yl]methanone], inhibition was half-maximal at 274 nM (IC50).

On to `O=C(N1CC2(CC(n3cnc(C4CC4)n3)C2)C1)N1CC2(C1)CN(S(=O)(=O)N1CCOCC1)C2` [Example 318, [6-(3-cyclopropyl-1,2,4-triazol-1-yl)-2-azaspiro[3.3]heptan-2-yl]-(2-morpholinosulfonyl-2,6-diazaspiro[3.3]heptan-6-yl)methanone], for which the IC50 is 291 nM.

Consider `NS(=O)(=O)c1ccc(F)c(CC2CCN(C(=O)N3CC4(CC(n5cnc(C6CC6)n5)C4)C3)CC2)c1` [Example 319], for which the IC50 was determined as 301 nM.

Take `CCCS(=O)(=O)N1CC2(CN(C(=O)N3CC4(CC(n5cnc(C6CC6)n5)C4)C3)C2)C1` [Example 320, [6-(3-cyclopropyl-1,2,4-triazol-1-yl)-2-azaspiro[3.3]heptan-2-yl]-(2-propylsulfonyl-2,6-diazaspiro[3.3]heptan-6-yl)methanone]: inhibition was half-maximal at 314 nM (IC50).

For the compound `O=C(N1CCC(NS(=O)(=O)c2ccc(C(F)(F)F)cc2)CC1)N1CC2(CC(n3cnc(C4CC4)n3)C2)C1` [Example 321, N-[1-[6-(3-cyclopropyl-1,2,4-triazol-1-yl)-2-azaspiro[3.3]heptane-2-carbonyl]-4-piperidyl]-4-(trifluoromethyl) benzenesulfonamide], it took 331 nM to reach half-maximal inhibition (IC50).
